Assay results taken from patent US20230048576A1, “COMPOUNDS FOR THE TREATMENT OF NEUROPATHIC PAIN” (City of Hope, priority 2019, published 2023).

Assay: Mean group body weight in Taxol model
Format: in vivo, rat
Experimental: Neuropathic pain was induced by intraperitoneal administration of Taxol at a dose level of 6 mg/kg on study days 0-6 and 12 mg/kg on study days 7-12. Following injection of Taxol animals experienced pain as was assessed using the von Frey test. The development of neuropathic pain was confirmed by measuring mechanical allodynia (Von Frey test) on study day 13 (for inclusion) and on study day 14 (1 hour and 2 hour post dosing) and 24 hour post first dosing.

[1] = 100 mg/kg PO, Group 4, Baseline

## CC(C)(Oc1ccc(NC(=O)Nc2ccc(Cc3ccc(NC(=O)Nc4ccc(OC(C)(C)C(=O)O)cc4)c(Cl)c3)cc2Cl)cc1)C(=O)O [LR-90, methylene bis[4,4′-(2-chlorophenylureidophenoxyisobutyric acid)]]
25 mg/kg PO, Group 6, Day 3
  Mean group body weight: 237.50 g
  Mean group body weight (% from baseline): 106.26%
25 mg/kg PO, Group 6, Day 5
  Mean group body weight: 255.50 g
  Mean group body weight (% from baseline): 114.32%
25 mg/kg PO, Group 6, Day 7
  Mean group body weight: 264.30 g
  Mean group body weight (% from baseline): 118.31%
25 mg/kg PO, Group 6, Day 9
  Mean group body weight: 275.88 g
  Mean group body weight (% from baseline): 123.38%
25 mg/kg PO, Group 6, Day 11
  Mean group body weight: 282.38 g
  Mean group body weight (% from baseline): 126.30%
25 mg/kg PO, Group 6, Day 13
  Mean group body weight: 286.75 g
  Mean group body weight (% from baseline): 128.26%
25 mg/kg PO, Group 6, Day 16
  Mean group body weight: 277.50 g
  Mean group body weight (% from baseline): 124.11%
25 mg/kg PO, Group 6, Day 20
  Mean group body weight: 277.63 g
  Mean group body weight (% from baseline): 124.18%
25 mg/kg PO, Group 6, Day 23
  Mean group body weight: 263.63 g
  Mean group body weight (% from baseline): 117.84%
25 mg/kg PO, Group 6, Day 26
  Mean group body weight: 239.00 g
  Mean group body weight (% from baseline): 108.59%
50 mg/kg PO, Group 5, Baseline
  Mean group body weight: 225.88 g
  Mean group body weight (% from baseline): 100.00%
50 mg/kg PO, Group 5, Day 1
  Mean group body weight: 234.38 g
  Mean group body weight (% from baseline): 103.80%
50 mg/kg PO, Group 5, Day 3
  Mean group body weight: 241.63 g
  Mean group body weight (% from baseline): 106.95%
50 mg/kg PO, Group 5, Day 5
  Mean group body weight: 257.50 g
  Mean group body weight (% from baseline): 113.97%
50 mg/kg PO, Group 5, Day 7
  Mean group body weight: 268.63 g
  Mean group body weight (% from baseline): 118.88%
50 mg/kg PO, Group 5, Day 9
  Mean group body weight: 278.38 g
  Mean group body weight (% from baseline): 123.18%
50 mg/kg PO, Group 5, Day 11
  Mean group body weight: 286.13 g
  Mean group body weight (% from baseline): 126.60%
50 mg/kg PO, Group 5, Day 13
  Mean group body weight: 291.38 g
  Mean group body weight (% from baseline): 128.91%
50 mg/kg PO, Group 5, Day 16
  Mean group body weight: 280.13 g
  Mean group body weight (% from baseline): 123.98%
50 mg/kg PO, Group 5, Day 20
  Mean group body weight: 273.75 g
  Mean group body weight (% from baseline): 121.18%
50 mg/kg PO, Group 5, Day 23
  Mean group body weight: 264.29 g
  Mean group body weight (% from baseline): 116.09%
50 mg/kg PO, Group 5, Day 26
  Mean group body weight: 266.67 g
  Mean group body weight (% from baseline): 117.29%
[1]
  Mean group body weight: 222.63 g
  Mean group body weight (% from baseline): 100.00%
100 mg/kg PO, Group 4, Day 1
  Mean group body weight: 235.50 g
  Mean group body weight (% from baseline): 105.77%
100 mg/kg PO, Group 4, Day 3
  Mean group body weight: 237.63 g
  Mean group body weight (% from baseline): 106.74%
100 mg/kg PO, Group 4, Day 5
  Mean group body weight: 257.25 g
  Mean group body weight (% from baseline): 115.56%
100 mg/kg PO, Group 4, Day 7
  Mean group body weight: 267.25 g
  Mean group body weight (% from baseline): 120.04%
100 mg/kg PO, Group 4, Day 9
  Mean group body weight: 276.50 g
  Mean group body weight (% from baseline): 124.20%
100 mg/kg PO, Group 4, Day 11
  Mean group body weight: 285.00 g
  Mean group body weight (% from baseline): 128.01%
100 mg/kg PO, Group 4, Day 13
  Mean group body weight: 288.75 g
  Mean group body weight (% from baseline): 129.71%
100 mg/kg PO, Group 4, Day 16
  Mean group body weight: 284.75 g
  Mean group body weight (% from baseline): 127.91%
100 mg/kg PO, Group 4, Day 20
  Mean group body weight: 266.63 g
  Mean group body weight (% from baseline): 119.75%
100 mg/kg PO, Group 4, Day 23
  Mean group body weight: 249.00 g
  Mean group body weight (% from baseline): 111.34%
100 mg/kg PO, Group 4, Day 26
  Mean group body weight: 234.00 g
  Mean group body weight (% from baseline): 106.04%
